# According to patent US10105348B2, “Use of 2-(5S-methyl-2-oxo-4R-phenyl-pyrrolidin-1-yl)-acetamide in the treatment of seizures” (Latvian Institute of Organic Synthesis, priority 2015, dated 2018):
# Tests used:
# [1] = system: BIC-induced clonic and tonic seizures; assay: Timed i.v. bicucculine (BIC) infusion seizure threshold test; format: in vivo; conditions: male ICR mice
# Description: (§1) Male ICR mice (Harlan Laboratories BV, Netherlands, ICR (CD-1)) weighing 23-25 g were housed under standard conditions (21-23° C., 50%±10% relative humidity, 12 h light-dark cycle) with unlimited access to standard food (R70 diet, Lactamin AB, Sweden) and water. All experimental procedures were carried out in accordance with guidelines of the EU Directive 2010/63/EU and were approved by the Ethics Council of Animal Protection at the Veterinary and Food Service, Riga, Latvia.
# (§2) To accurately detect even slight modulatory effects on convulsive tendencies, we employed the more sensitive intravenous (i.v.) administration route of pentylenetetrazol (PTZ) administration (Loscher W, Honack D, Fassbender C P, Nolting B (1991). The role of technical, biological and pharmacological factors in the laboratory evaluation of anticonvulsant drugs. III. Pentylenetetrazole seizure models. Epilepsy Res 8:171-189; Mandhane S N, Aavula K, Rajamannar T (2007). Timed pentylenetetrazol infusion test: a comparative analysis with s.c.PTZ and MES models of anticonvulsant screening in mice. Seizure 16:636-644) and used bicucculine (BIC) to inhibit the GABA pathway and to induce seizures (Meldrum B S (1975). Epilepsy and gamma-aminobutyric acid-mediated inhibition. Int Rev Neurobiol 17:1-36.). Chemoconvulsant-induced clonic and tonic seizures were initiated by inserting a 30-gauge needle into the tail vein of mice and infusing PTZ 1% or BIC 0.01% at a constant rate of 10 μl/1 s to restrained animals. Infusion was halted when forelimb clonus followed by tonic seizures of the full body were observed. Minimal doses of PTZ or BIC (mg/kg of mouse weight) necessary to induce clonic and tonic seizures were considered as an index of seizure threshold.
# (§3) 2-(5S-Methyl-2-oxo-4R-phenyl-pyrrolidin-1-yl)-acetamide (E1R) was administered i.p. at doses of 10 and 50 mg/kg. The test session was started 60 min after the administration of E1R or saline.
# [2] = system: PTZ-induced clonic and tonic seizures; assay: Timed i.v. pentylenetetrazol (PTZ) infusion seizure threshold test; format: in vivo; conditions: male ICR mice
# Description: as §1, §2, §3
# [3] = E1R 10 mg/kg i.p. 60 min before 0.01% BIC i.v. infusion
# [4] = E1R 50 mg/kg i.p. 60 min before 0.01% BIC i.v. infusion
# [5] = E1R 10 mg/kg i.p. 60 min before 1% PTZ i.v. infusion
# [6] = E1R 50 mg/kg i.p. 60 min before 1% PTZ i.v. infusion
structure (smiles),measurement,setting,value
"C[C@H]1[C@@H](c2ccccc2)CC(=O)N1CC(N)=O [E1R, 2-(5S-Methyl-2-oxo-4R-phenyl-pyrrolidin-1-yl)-acetamide]","Dose of BIC, mg/kg ± SEM, Clonic seizure (threshold)",[1]; [3],0.42 ± 0.02 mg/kg
same,"Dose of BIC, mg/kg ± SEM, Tonic seizure (threshold)",[1]; [3],0.88 ± 0.08 mg/kg
same,"Dose of BIC, mg/kg ± SEM, Clonic seizure (threshold)",[1]; [4],0.48 ± 0.03 mg/kg
same,"Dose of BIC, mg/kg ± SEM, Tonic seizure (threshold)",[1]; [4],1.15 ± 0.09 mg/kg
same,"Clonic and tonic seizures-inducing doses of BIC, change versus saline (in words)",[1]; E1R 50 mg/kg i.p.,significant increased
same,"Dose of PTZ, mg/kg ± SEM, Clonic seizure (threshold)",[2]; [5],27 ± 2 mg/kg
same,"Dose of PTZ, mg/kg ± SEM, Tonic seizure (threshold)",[2]; [5],64 ± 6 mg/kg
same,"Induction of tonic seizures by PTZ, effect versus saline (in words)",[2]; E1R 10 mg/kg i.p.,significantly reduced the induction of tonic seizures
same,"Dose of PTZ, mg/kg ± SEM, Clonic seizure (threshold)",[2]; [6],30 ± 1 mg/kg
same,"Dose of PTZ, mg/kg ± SEM, Tonic seizure (threshold)",[2]; [6],80 ± 8 mg/kg
same,"Clonic and tonic seizures-inducing doses of PTZ, change versus saline (in words)",[2]; E1R 50 mg/kg i.p.,significant increased
